Like-named read-outs stand apart in the source and are kept apart here.
Legend:
MCF7X (mammary) = test: Colony-forming assay; format: cell-based, human; conditions: for IC50: read-out: IC50 colony formation
LXFL 529L cells = test: Cellular uptake into LXFL 529L cells; conditions: for distribution cellular organelles / distribution cytosol / amount of substance within the cells: 2 hours incubation
Experimental: The compounds of Examples 1, 6 and 8 and Comparative Examples 1 and 2 were investigated with respect to their ability to penetrate LXFL 529L cells having the passage numbers P23 to P39. The amounts of the substances taken up by the cells are given depending on the concentration of the substance within the incubation medium. The time of incubation was 2 hours in all of the experiments. Furthermore, the distribution of the substance which was taken up by the cells in the cytosol and the cellular organelles (particular) was estimated and is given in the intermediate column of Table 2. Tumor cell growth inhibition was determined by the sulfo-rhodamine B assay (SRB assay) according to Skehan et al., J. Natl. Cancer Institute 82, pages 1107-1112 (1990). Incubation was conducted for three days in serum containing medium. Tumor cell lines tested were a large-cell lung carcinoma xenograft line LXFL 529 L and the mammary carcinoma line MCF-7.

OVXF1353 (ovarian) = test: Colony-forming assay; format: cell-based, human
Experimental: (§1) The anti-tumor activity of the compounds was evaluated via a colony-forming-assay as described e.g. by D. P. Berger et al. in Annals of Oncology 1, pages 333-341 (1 990), “The clonongenic assay with human tumor xenografts, evaluation, predictive values and application for drug screening”.
(§2) The experiments were conducted using various tumor cell lines, in particular mammary carcinoma (MAXF), lung adenocarcinoma (LXFA), large-cell lung carcinoma (LXFL), small-cell lung carcinoma (LXFS), colon carcinoma (CXF), melanoma (MEXF), pancreatic carcinoma (PAXF), renal carcinoma (RXF), ovarian carcinoma (OVXF) and bladder carcinoma (BXF).

[1] = test system: large-cell lung carcinoma xenograft line LXFL 529 L; test: Tumor cell growth inhibition, sulforhodamine B (SRB) assay; format: cell-based, human; conditions: LXFL529L; three days incubation, serum containing medium
PAXF736 (pancreatic) = test: Colony-forming assay; format: cell-based, human; conditions: for IC50: read-out: IC50 colony formation
[2] = test system: LXFL529 (lung large-cell); test: Colony-forming assay; format: cell-based, human
[3] = cited from earlier work
[4] = test system: human tumor xenograft LXFL 529; test: In vivo testing in nude mice bearing subcutaneous tumor xenograft; conditions: for tumor growth (relative tumor volume) compared to the vehicle control (in words): LXFL 529/17, i.p., nude mice, FIG. 1
Experimental: Compound of Examples 1, 4, 6, 8, 9 and 10 were subjected to in vivo testing in nude mice bearing subcutaneously growing human tumor xenograft LXFL 529. The indigoid bisindole derivatives were applied intraperitoneally to the animals in doses and according to the schedule as described in Table 4.
The experiments were run for 21 or 28 days. Anti-tumor activity was evaluated comparing the median tumor volume relative to control, expressed as %T/C, wherein T is the test group and C the vehicle control group. In Table 4, anti-tumor activity is given according to an activity rate scale.

[5] = test system: mammary carcinoma line MCF-7; test: Tumor cell growth inhibition, sulforhodamine B (SRB) assay; format: cell-based, human; conditions: MCF7; three days incubation, serum containing medium
HT29X (colon) = test: Colony-forming assay; format: cell-based, human; conditions: colon HT29X; for IC50: read-out: IC50 colony formation
OVXF1352 (ovarian) = test system: OVXF1352 (ovarian)
Experimental: as §1, §2

MEXF514 (melanoma) = test: Colony-forming assay; format: cell-based, human
[6] = dosage of 100 mg/kg up to 300 mg/kg, FIG. 2 and FIG. 4
Description: A reduction of the body weight of the tested mice of more then 20% by weight in general is interpreted as a toxic dose.

MX1 (mammary) = test: Colony-forming assay; format: cell-based, human
[7] = test system: LXFS650 (lung small-cell); test: Colony-forming assay; format: cell-based, human
BXF1299 (bladder) = test: Colony-forming assay; format: cell-based, human
CXF280 (colon) = test: Colony-forming assay; format: cell-based, human
[8] = concentration of incubation 10 μM
[9] = concentration of incubation 20 μM
[10] = read-out: IC50 colony formation
[11] = Homo sapiens, read-out: IC50 colony formation

For O=C1Nc2ccccc2/C1=C1/Nc2ccccc2C1=O [Example 1, Indirubin], the IC70 colony formation (MCF7X (mammary)) was 6.0 µM, the IC50 (MCF7X (mammary)) was 2 µM and the “uptake by the tumor cells (in words)” value (LXFL 529L cells; LXFL 529L cells) was “taken up by the tumor cells”. The distribution cellular organelles (LXFL 529L cells; [8]) was 93 ± 5.7%, the distribution cytosol (LXFL 529L cells; [8]) was 7 ± 5.7% and the distribution cellular organelles (LXFL 529L cells; [9]) was 94 ± 1.4%. For the same molecule, the distribution cytosol (LXFL 529L cells; [9]) was 6 ± 1.4%, the IC70 colony formation (OVXF1353 (ovarian)) was >30 µM and the IC50 (OVXF1353 (ovarian); [10]) was 12.3 µM. The IC50 [1] was 9.9 ± 0.1 µM, the IC70 colony formation (PAXF736 (pancreatic)) was >30 µM and the IC50 (PAXF736 (pancreatic)) was 5.4 µM. For the same molecule, the IC70 colony formation [2] was 35.6 µM, the IC50 [2, 10] was 25.3 µM and the “solubility in water (in words)” value [3] was “dissolves only poorly in water”. For the same molecule, the activity rating ([4]; 100 mg/kg/day i.p., days 1-5, 8-9) was “+ (tumor inhibition T/C > 25-50%)”, the activity rating ([4]; 200 mg/kg/day i.p., days 1-5, 8-9) was “++ (tumor stasis T/C ≦ 25%)” and the “tumor growth (relative tumor volume) compared to the vehicle control (in words)” value [4] was “significantly inhibited the tumor growth”. For the same molecule, the IC50 [5] was 4 ± 2 µM.

In the case of Cc1ccc2c(c1)/C(=C1/Nc3ccccc3C1=O)C(=O)N2 [Example 6, 5-Methylindirubin], the IC70 colony formation (MCF7X (mammary)) is reported as 1.2 µM, the IC50 (MCF7X (mammary)) is reported as < 1 µM and the “ability to penetrate the cellular membrane / uptake compared to indirubin (Example 1) (in words)” value (LXFL 529L cells; LXFL 529L cells) is reported as “substantially improved”. The “uptake by the tumor cells (in words)” value (LXFL 529L cells; LXFL 529L cells) was “taken up by the tumor cells”, the “amount of substance within the cells” value (LXFL 529L cells; [8]) was 0.52 ± 0.1 and the distribution cellular organelles (LXFL 529L cells; [8]) was 87 ± 0.7%. For the same molecule, the distribution cytosol (LXFL 529L cells; [8]) was 13 ± 0.7%, the “amount of substance within the cells” value (LXFL 529L cells; [9]) was 0.86 ± 0.22 and the distribution cellular organelles (LXFL 529L cells; [9]) was 94 ± 2.8%. The distribution cytosol (LXFL 529L cells; [9]) was 6 ± 2.8%, the IC70 colony formation (HT29X (colon)) was 14.4 µM and the IC50 (HT29X (colon)) was < 1 µM. For the same molecule, the IC70 colony formation (OVXF1352 (ovarian)) was >30 µM, the IC50 (OVXF1352 (ovarian); [10]) was 1 µM and the IC50 [1] was 7.5 ± 0.5 µM. The IC70 colony formation (MEXF514 (melanoma)) was 27.8 µM, the IC50 (MEXF514 (melanoma); [10]) was 19.2 µM and the “reduction of body weight (in words)” value [6] was “without any significant reduction of body weight”. For the same molecule, the IC70 colony formation (PAXF736 (pancreatic)) was 27.5 µM, the IC50 (PAXF736 (pancreatic)) was 15.4 µM and the activity rating ([4]; 100 mg/kg/day i.p., days 1-5, 8-12, 15, 17, 19, 22) was “++ (tumor stasis T/C ≦ 25%)”. For the same molecule, the activity rating ([4]; 300 mg/kg/day i.p., days 1, 4, 8, 11, 15, 18, 22) was “++ (tumor stasis T/C ≦ 25%)”, the “tumor growth (relative tumor volume) compared to the vehicle control (in words)” value [4] was “significantly inhibited the tumor growth” and the “anti-tumor activity (in words)” value ([4]; dosage of 100 mg/kg up to 300 mg/kg, FIG. 1 and FIG. 3) was “very high anti-tumor activity”. It also gave an IC50 [5] of 4.8 ± 0.5 µM.

c1ccc(-c2c(-c3[nH]c4ccccc4c3-c3ccccc3)[nH]c3ccccc23)cc1 [Example 14, Bis(3-phenylindol-2-yl)] gave an IC70 colony formation (MX1 (mammary)) of 4.8 µM, an IC50 (MX1 (mammary); [11]) of 2.8 µM and an IC70 colony formation [7] of 6.7 µM. For the same molecule, the IC50 [7, 11] was 4.7 µM, the IC50 (HT29X (colon); Homo sapiens) was 1.6 µM and the IC70 colony formation (HT29X (colon)) was 3.4 µM. The IC70 colony formation (BXF1299 (bladder)) was 6.2 µM, the IC50 (BXF1299 (bladder); [11]) was 2.7 µM and the IC70 colony formation (CXF280 (colon)) was 7.2 µM. The IC50 (CXF280 (colon); [11]) was < 1 µM, the activity rating ([4]; 10 mg/kg/day i.p., days 1-5, 8-12) was “− (inactive T/C > 50%)” and the activity rating ([4]; 100 mg/kg/day i.p., days 1-5, 8-12) was “+ (tumor inhibition T/C > 25-50%)”. For the same molecule, the activity rating ([4]; 300 mg/kg/day i.p., days 1-5, 8-12) was “+ (tumor inhibition T/C > 25-50%)”.

Source: patent publication US6664285B1, “Use of cell membrane penetrating indigoid bisindole derivatives” (priority 1999, dated 2003)
